Source: patent publication US11999727B2 (Tango Therapeutics, Inc., priority 2020, dated 2024)
pIC50: −log10 of the molar value.

Key:
[1] = tested on: HAP1 MTAP-intact cell line; assay: SDMA in-cell western assay, HAP1 MTAP-intact; assay type: cell-based; conditions: Homo sapiens, HAP1, SDMA in-cell western, HAP1 MTAP-intact; read-out: MTAP HAP1 intact IC50
Summary of the method: (§1)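 IC50 values come from SDMA signal quantified by in-cell western in two HAP1 lines, one with native MTAP levels and one lacking MTAP.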

PRMT5 [2] = biological target: T1, PRMT5 (Homo sapiens, UniProt O14744); assay: PRMT5 biochemical IC50 assay with SAM as cofactor; conditions: PRMT5, SAM as cofactor; read-out: SAM IC50
T1 construct: purchased Viva (custom protein)
T1 sequence (O14744 whole entry): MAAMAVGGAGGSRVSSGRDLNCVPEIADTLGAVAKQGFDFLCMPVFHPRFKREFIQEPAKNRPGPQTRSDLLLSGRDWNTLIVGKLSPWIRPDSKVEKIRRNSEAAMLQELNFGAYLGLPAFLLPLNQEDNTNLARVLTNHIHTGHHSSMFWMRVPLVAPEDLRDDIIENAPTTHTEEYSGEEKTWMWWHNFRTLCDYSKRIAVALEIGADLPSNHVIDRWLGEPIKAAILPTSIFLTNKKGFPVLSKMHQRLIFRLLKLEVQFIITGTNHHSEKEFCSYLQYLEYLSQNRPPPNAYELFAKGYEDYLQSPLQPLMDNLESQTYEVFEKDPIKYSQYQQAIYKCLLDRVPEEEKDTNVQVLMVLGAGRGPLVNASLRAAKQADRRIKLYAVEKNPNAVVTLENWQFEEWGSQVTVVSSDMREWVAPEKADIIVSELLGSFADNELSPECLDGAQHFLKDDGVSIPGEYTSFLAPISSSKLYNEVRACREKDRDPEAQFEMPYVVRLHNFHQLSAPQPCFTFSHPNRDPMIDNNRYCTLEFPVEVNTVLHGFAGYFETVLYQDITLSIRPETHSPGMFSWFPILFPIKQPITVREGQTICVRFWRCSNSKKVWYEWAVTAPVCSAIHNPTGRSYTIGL
T1 sequence (Q9BQA1 whole entry partner): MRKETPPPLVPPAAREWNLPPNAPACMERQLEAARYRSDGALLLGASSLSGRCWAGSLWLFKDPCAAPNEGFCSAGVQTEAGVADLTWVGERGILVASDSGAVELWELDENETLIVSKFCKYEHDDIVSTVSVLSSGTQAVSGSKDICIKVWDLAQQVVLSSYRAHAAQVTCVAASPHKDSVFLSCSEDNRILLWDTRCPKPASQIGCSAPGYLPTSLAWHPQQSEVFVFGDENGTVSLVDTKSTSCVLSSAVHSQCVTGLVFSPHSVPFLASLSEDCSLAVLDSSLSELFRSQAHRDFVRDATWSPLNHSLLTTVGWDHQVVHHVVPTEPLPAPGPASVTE

[3] = tested on: HAP1 MTAP-deleted cell line; assay: SDMA in-cell western assay, HAP1 MTAP-deleted; assay type: cell-based; conditions: for pIC50: Homo sapiens, HAP1, SDMA in-cell western, HAP1 MTAP-deleted; for MTAP intact/deleted ratio: IC50 ratio HAP1 MTAP-intact / HAP1 MTAP-deleted, SDMA in-cell western
Summary of the method: as §1

PRMT5 [4] = biological target: T1, PRMT5; assay: PRMT5 biochemical IC50 assay with no cofactor; conditions: PRMT5, no cofactor; read-out: No Cofactor/rel IC50
From the text: Table 1 indicates IC50 values (μM) against PRMT5 for exemplary compounds in the presence of SAM as cofactor, with no cofactor, and with MTA as cofactor, respectively (columns 4-6). […] Ki values can be calculated from the IC50 values as described in the Examples section. As detailed in the Examples section, for the assay performed in the presence of SAM, IC50=Ki×1.5 (Ki=IC50/1.5).

PRMT5 [5] = biological target: T1, PRMT5; assay: PRMT5 biochemical IC50 assay with MTA as cofactor; conditions: PRMT5, MTA as cofactor; read-out: MTA IC50
[6] = tested on: HAP1 MTAP-deleted cell line; assay: Viability assay, MTAP-deleted cell line; assay type: cell-based; conditions: Homo sapiens, read-out: HAP1 MTAP deleted viability
From the text: Table 1 additionally indicates IC50 values in a viability assay for the MTAP-deleted cell line (column 10), indicating the effect of treatment with compound on cell survival.

[7] = read-out: HAP 1 MTAP deleted IC50
[8] = HAP1, viability IC50, MTAP-deleted cell line

pIC50 [1] | pIC50 (PRMT5 [2]) | pIC50 [3, 7] | pIC50 (PRMT5 [4]) | pIC50 (PRMT5 [5]) | pIC50 ([3]; read-out: HAP1 MTAP deleted IC50) | SMILES | MTAP intact/deleted ratio [3] | pIC50 [6, 8] | pIC50 ([6]; HAP1, viability assay, HAP1 MTAP-deleted)
6.00 to 7.00 | 6.30 to 7.30 | > 7.00 | > 7.30 | > 7.30 | – | Cc1cc(NC(=O)C(=O)N2C[C@@H](C)CC[C@@H]2c2ccc3c(c2)C(=O)NC3)cnc1N (single isomer, unassigned) [Compound 657] | A (an IC50 ratio greater than or equal to 10 fold) | > 6.00 | –
6.00 to 7.00 | 6.30 to 7.30 | > 7.00 | > 7.30 | > 7.30 | – | Cc1cc(NC(=O)C(=O)N2C[C@H](C)CC[C@H]2c2cc(F)cc(Cl)c2)cnc1N (single isomer, unassigned) [Compound 659] | A (an IC50 ratio greater than or equal to 10 fold) | > 6.00 | –
< 6.00 | < 6.30 | < 6.00 | < 6.30 | 6.30 to 7.30 | – | Cc1cc(NC(=O)C(=O)N2C[C@@H](C)CC[C@@H]2c2cc(Cl)cc(Cl)c2)cnc1N (single isomer, unassigned) [Compound 660] | B (an IC50 ratio greater than or equal to 3 fold but lower than 10 fold) | < 5.00 | –
< 6.00 | 6.30 to 7.30 | > 7.00 | > 7.30 | > 7.30 | – | C[C@@H]1CC[C@@H](c2cc(F)c3[nH]ncc3c2)N(C(=O)C(=O)Nc2cncc(C(N)=O)c2)C1 (single isomer, unassigned) [Compound 663] | A (an IC50 ratio greater than or equal to 10 fold) | 5.00 to 6.00 | –
< 6.00 | 6.30 to 7.30 | 6.00 to 7.00 | 6.30 to 7.30 | > 7.30 | – | Cc1cc(NC(=O)C(=O)N2C[C@@H](C)CC[C@@H]2c2cc(Cl)cc(C(F)(F)F)c2)cnc1N (single isomer, unassigned) [Compound 665] | A (an IC50 ratio greater than or equal to 10 fold) | 5.00 to 6.00 | –
6.00 to 7.00 | 6.30 to 7.30 | > 7.00 | > 7.30 | > 7.30 | – | COc1ncc(NC(=O)C(=O)N2C[C@H](C)CC[C@H]2c2ccc3c(c2)CCC(=O)N3)cc1C(N)=O (single isomer, unassigned) [Compound 674] | A (an IC50 ratio greater than or equal to 10 fold) | > 6.00 | –
< 6.00 | < 6.30 | < 6.00 | < 6.30 | 6.30 to 7.30 | – | Cc1cc(NC(=O)C(=O)N2C[C@H](C)CC[C@H]2c2ccc(-c3ccn[nH]3)cc2)cnc1N (single isomer, unassigned) [Compound 675] | B (an IC50 ratio greater than or equal to 3 fold but lower than 10 fold) | < 5.00 | –
6.00 to 7.00 | 6.30 to 7.30 | > 7.00 | > 7.30 | > 7.30 | – | Cc1cc(NC(=O)C(=O)N2C[C@@H](C)CC[C@@H]2c2ccc(-c3ccn[nH]3)cc2)cnc1N (single isomer, unassigned) [Compound 676] | B (an IC50 ratio greater than or equal to 3 fold but lower than 10 fold) | > 6.00 | –
< 6.00 | 6.30 to 7.30 | > 7.00 | > 7.30 | > 7.30 | – | Cc1cc(NC(=O)C(=O)N2C[C@H](C)CC[C@H]2c2cc(Cl)cc(Cl)c2)cnc1N (single isomer, unassigned) [Compound 681] | A (an IC50 ratio greater than or equal to 10 fold) | 5.00 to 6.00 | –
< 6.00 | 6.30 to 7.30 | 6.00 to 7.00 | 6.30 to 7.30 | > 7.30 | – | C[C@H]1CN(C(=O)C(=O)Nc2cncc(C(N)=O)c2)[C@H](c2ccc(F)c(F)c2)CC1(F)F (single isomer, unassigned) [Compound 683] | A (an IC50 ratio greater than or equal to 10 fold) | 5.00 to 6.00 | –
< 6.00 | < 6.30 | < 6.00 | < 6.30 | < 6.30 | – | Cc1cc(NC(=O)C(=O)N2C[C@H](C)C(F)(F)C[C@H]2c2ccc(F)c(F)c2)cnc1N (single isomer, unassigned) [Compound 684] | C (an IC50 ratio of less than 3 fold) | < 5.00 | –
< 6.00 | < 6.30 | < 6.00 | < 6.30 | < 6.30 | – | CC(=O)Nc1ccc([C@H]2CC[C@H](C)CN2C(=O)C(=O)Nc2cncc(C(N)=O)c2)s1 (single isomer, unassigned) [Compound 686] | C (an IC50 ratio of less than 3 fold) | < 5.00 | –
6.00 to 7.00 | 6.30 to 7.30 | > 7.00 | > 7.30 | > 7.30 | – | Cc1ccc([C@@H]2CC[C@@H](C)CN2C(=O)C(=O)Nc2cnc(N)c(C)c2)cn1 (single isomer, unassigned) [Compound 687] | A (an IC50 ratio greater than or equal to 10 fold) | > 6.00 | –
< 6.00 | < 6.30 | < 6.00 | < 6.30 | < 6.30 | – | Cc1cc(NC(=O)C(=O)N2C[C@H](C)CC[C@H]2c2ccc(C(F)(F)F)c(Cl)c2)cnc1N (single isomer, unassigned) [Compound 689] | C (an IC50 ratio of less than 3 fold) | < 5.00 | –
6.00 to 7.00 | 6.30 to 7.30 | > 7.00 | > 7.30 | > 7.30 | – | Cc1nc2cc([C@@H]3CC[C@@H](C)CN3C(=O)C(=O)Nc3cncc(C(N)=O)c3)ccc2s1 (single isomer, unassigned) [Compound 693] | A (an IC50 ratio greater than or equal to 10 fold) | > 6.00 | –
< 6.00 | 6.30 to 7.30 | > 7.00 | > 7.30 | > 7.30 | – | CCc1cc(NC(=O)C(=O)N2C[C@@H](C)CC[C@@H]2c2ccc3c(c2)CNC3=O)cnc1N (single isomer, unassigned) [Compound 696, N-(6-amino-5-ethylpyridin-3-yl)-2-(5-methyl-2-(1-oxoisoindolin-5-yl)piperidin-1-yl)-2-oxoacetamide] | A (an IC50 ratio greater than or equal to 10 fold) | 5.00 to 6.00 | –
< 6.00 | 6.30 to 7.30 | > 7.00 | > 7.30 | > 7.30 | – | Cc1ncc(NC(=O)C(=O)N2C[C@H](C)CC[C@H]2c2ccc3c(c2)CCC(=O)N3)cc1C(F)(F)F (single isomer, unassigned) [Compound 697] | A (an IC50 ratio greater than or equal to 10 fold) | > 6.00 | –
< 6.00 | 6.30 to 7.30 | > 7.00 | > 7.30 | > 7.30 | – | CCc1cc(NC(=O)C(=O)N2C[C@@H](C)CC[C@@H]2c2ccc3c(c2)C(=O)NC3)cnc1N (single isomer, unassigned) [Compound 700] | A (an IC50 ratio greater than or equal to 10 fold) | > 6.00 | –
< 6.00 | < 6.30 | < 6.00 | < 6.30 | < 6.30 | – | Cc1nc2cc([C@H]3CC[C@H](C)CN3C(=O)C(=O)Nc3cncc(C(N)=O)c3)ccc2s1 (single isomer, unassigned) [Compound 702] | B (an IC50 ratio greater than or equal to 3 fold but lower than 10 fold) | < 5.00 | –
6.00 to 7.00 | 6.30 to 7.30 | 6.00 to 7.00 | 6.30 to 7.30 | > 7.30 | – | Cc1cc(NC(=O)C(=O)N2C[C@@H](C)CC[C@@H]2c2ccc(C(F)(F)F)c(Cl)c2)cnc1N (single isomer, unassigned) [Compound 703] | C (an IC50 ratio of less than 3 fold) | 5.00 to 6.00 | –
< 6.00 | < 6.30 | < 6.00 | 6.30 to 7.30 | > 7.30 | – | CC(=O)Nc1ccc([C@@H]2CC[C@@H](C)CN2C(=O)C(=O)Nc2cncc(C(N)=O)c2)s1 (single isomer, unassigned) [Compound 704] | C (an IC50 ratio of less than 3 fold) | < 5.00 | –
6.00 to 7.00 | 6.30 to 7.30 | – | > 7.30 | > 7.30 | > 7.00 | Cc1cc(NC(=O)C(=O)N2C[C@@H](C)C(F)(F)C[C@@H]2c2ccc(F)c(F)c2)cnc1N (single isomer, unassigned) [Compound 705] | B (an IC50 ratio greater than or equal to 3 fold but lower than 10 fold) | – | > 6.00
